From article PMC12630350, “Direct coupling of lactate oxidation with butyryl-CoA formation via a canonical electron transfer flavoprotein in Fusobacterium nucleatum” (The Journal of Biological Chemistry, 2025)

Target: T1, ETFFN (EtfAB, FN1533-FN1534) (Fusobacterium polymorphum, UniProt A0A1Z3CIN2+A0A1Z3CJK5)
T1 construct: gene CBG50_09400; heterodimer, His6 tag on N-terminus of EtfB; EtfA 34,980 Da, tagged EtfB 30,560 Da; E. coli BL21(DE3)
T1 sequence (A0A1Z3CIN2 1-322): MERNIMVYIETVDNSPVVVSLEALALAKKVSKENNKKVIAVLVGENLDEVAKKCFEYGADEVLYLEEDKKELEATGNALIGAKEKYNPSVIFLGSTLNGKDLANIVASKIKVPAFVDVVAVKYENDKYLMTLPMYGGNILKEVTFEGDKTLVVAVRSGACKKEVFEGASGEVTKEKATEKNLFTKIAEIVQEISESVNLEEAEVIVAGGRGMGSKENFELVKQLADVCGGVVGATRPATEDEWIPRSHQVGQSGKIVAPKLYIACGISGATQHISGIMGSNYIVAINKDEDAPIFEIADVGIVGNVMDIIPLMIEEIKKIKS
T1 sequence (A0A1Z3CJK5 1-259): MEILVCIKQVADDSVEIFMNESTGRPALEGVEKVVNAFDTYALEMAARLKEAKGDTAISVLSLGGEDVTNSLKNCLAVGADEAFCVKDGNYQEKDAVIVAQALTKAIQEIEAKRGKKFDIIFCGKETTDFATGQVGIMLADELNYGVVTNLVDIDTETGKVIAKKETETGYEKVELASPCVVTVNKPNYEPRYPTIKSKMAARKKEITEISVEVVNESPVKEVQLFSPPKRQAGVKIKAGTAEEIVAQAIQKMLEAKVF
Assay: UV-visible spectrum; FAD released by heat denaturation
Format: binding
Conditions: copurified; FAD in alpha-subunit; FAD to protein ratio determined

Cc1cc2nc3c(=O)[nH]c(=O)nc-3n(C[C@H](O)[C@H](O)[C@H](O)COP(=O)(O)OP(=O)(O)OC[C@H]3O[C@@H](n4cnc5c(N)ncnc54)[C@H](O)[C@@H]3O)c2cc1C [FAD]
UV-visible spectrum; FAD released by heat denaturation: diagnostic of the FAD cofactor
